Measurements published in ChEMBL document CHEMBL3132803 (Medchemcomm, 2013).

Columns and labels:
[1] = tested on: Raji; assay: Cytotoxicity against human Raji cells assessed as inhibition of cell proliferation after 3 days by coulter counter analysis; type: functional, cell-based; details: 72 h
[2] = Cytotoxicity against human […] cells assessed as inhibition of cell proliferation after 3 days by coulter counter analysis; type: functional, cell-based; details: 72 h
[3] = tested on: DU-145; assay: Cytotoxicity against human DU145 cells assessed as inhibition of cell proliferation after 24 hrs by MTT assay; type: functional, cell-based; details: DU-145, 24 h
[4] = tested on: Serum; assay: Ratio of AUC in CSF to AUC in serum of Sprague-Dawley rat at 2.5 mg/kg, iv; type: ADME, organism-based; design: dose 2.5 mg/kg, route intravenous
[5] = AUC in Sprague-Dawley rat CSF at 2.5 mg/kg, iv administered as single dose by CE-UV analysis; type: ADME, organism-based; design: dose 2.5 mg/kg, route intravenous; details: cerebrospinal fluid
[6] = AUC in Sprague-Dawley rat serum at 2.5 mg/kg, iv administered as single dose by CE-UV analysis; type: ADME, organism-based; design: dose 2.5 mg/kg, route intravenous

SMILES	IC50 [1] [µM]	IC50 [2] [µM]	IC50 [3] [µM]	Ratio AUC [4] [%]	AUC [5] [µM·h]	AUC [6] [µM·h]
CNC(=O)N[C@H]1[C@@H]2NC(=O)c3ccc(Br)n3[C@@H]2C[C@H]1O	> 10	> 10	–	–	–	–
CN1C(=O)N[C@@H]2[C@H]3NC(=O)c4ccc(Br)n4[C@H]3C[C@@]21O	–	–	> 10	–	–	–
O=C1N[C@H]2[C@@H]3NC(=O)c4cccn4[C@@H]3C[C@H]2O1	> 10	> 10	–	–	–	–
CNC(=O)N[C@H]1[C@@H]2NC(=O)c3cccn3[C@@H]2C[C@H]1O	> 10	> 10	–	–	–	–
CN1C(=O)N[C@H]2[C@@H]3NC(=O)c4cccn4[C@@H]3C[C@]21O	3.16	3	> 10	–	–	–
CCN1C(=O)N[C@H]2[C@@H]3NC(=O)c4cccn4[C@@H]3C[C@]21O	–	–	> 10	–	–	–
CN1C(=O)N[C@H]2[C@@H]3NC(=O)c4ccc(Cl)n4[C@@H]3C[C@]21O	0.18	0.08	1.2	16	3.75	22.8
CCN1C(=O)N[C@H]2[C@@H]3NC(=O)c4ccc(Cl)n4[C@@H]3C[C@]21O	0.3	0.28	2.6	27	10.1	37.5
CCN1C(=O)N[C@H]2[C@@H]3NC(=O)c4cc(Cl)c(Cl)n4[C@@H]3C[C@]21O	0.62	0.44	1.4	30.7	7.6	24.8
CCN1C(=O)N[C@H]2[C@@H]3NC(=O)c4ccc(Br)n4[C@@H]3C[C@]21O	–	–	> 10	–	–	–
COc1ccc(CN2C(=O)N[C@H]3[C@@H]4NC(=O)c5ccc(Br)n5[C@@H]4C[C@]32O)cc1	–	–	> 10	–	–	–
CN1C(=O)N[C@H]2[C@@H]3NC(=O)c4ccc(C5CC5)n4[C@@H]3C[C@]21O	0.4	1	5	–	–	–
CN1C(=O)N[C@H]2[C@@H]3NC(=O)c4ccc(-c5ccccc5)n4[C@@H]3C[C@]21O	3.8	1.5	6	–	–	–
CN1C(=O)N[C@H]2[C@@H]3NC(=O)c4ccc(-c5ccc(N)cc5)n4[C@@H]3C[C@]21O	–	–	> 10	–	–	–
CN1C(=O)N[C@H]2[C@@H]3NC(=O)c4ccc(Br)n4[C@@H]3C[C@]21O [AGELASTATIN A]	0.14	2.8	2.3	–	3.41	53.2
